The source made the active and inactive calls. The calls are words filed in the database; no cut-off is given here.
Key:
Assay type in all cases: functional
[1] = tested on: Candida tropicalis; experiment: Antifungal activity against Candida tropicalis ATCC 13803 at 5 mg after 18 hr by agar well diffusion method; details: ATCC 13803, 18 h, read-out: IZ
[2] = tested on: Candida albicans; experiment: Antifungal activity against Candida albicans ATCC 60193 at 5 mg after 18 hr by agar well diffusion method; details: ATCC 60193, 18 h, read-out: IZ
[3] = tested on: Yersinia pseudotuberculosis; experiment: Antibacterial activity against Yersinia pseudotuberculosis ATCC 911 at 10 mg after 18 hr by agar well diffusion method; details: ATCC 911, 18 h, read-out: IZ
[4] = tested on: Enterococcus faecalis; experiment: Antibacterial activity against Enterococcus faecalis ATCC 29212 at 10 mg after 18 hr by agar well diffusion method; details: ATCC 29212, 18 h, read-out: IZ
[5] = tested on: Listeria monocytogenes; experiment: Antibacterial activity against Listeria monocytogenes ATCC 43251 at 10 mg after 18 hr by agar well diffusion method; details: ATCC 43251, 18 h, read-out: IZ
[6] = tested on: Escherichia coli; experiment: Antibacterial activity against Escherichia coli ATCC 25922 at 10 mg after 18 hr by agar well diffusion method; details: ATCC 25922, 18 h, read-out: IZ
[7] = tested on: Candida tropicalis; experiment: Antifungal activity against Candida tropicalis ATCC 13803 after 18 hr by agar well diffusion method
[8] = tested on: Klebsiella pneumoniae; experiment: Antibacterial activity against Klebsiella pneumoniae ATCC 13883 at 10 mg after 18 hr by agar well diffusion method; details: ATCC 13883, 18 h, read-out: IZ
[9] = tested on: Bacillus cereus; experiment: Antibacterial activity against Bacillus cereus 702 Roma at 10 mg after 18 hr by agar well diffusion method; details: read-out: IZ
[10] = tested on: Candida albicans; experiment: Antifungal activity against Candida albicans ATCC 60193 after 18 hr by agar well diffusion method
[11] = tested on: Staphylococcus aureus; experiment: Antibacterial activity against Staphylococcus aureus ATCC 25923 at 10 mg after 18 hr by agar well diffusion method; details: ATCC 25923, 18 h, read-out: IZ
[12] = tested on: Klebsiella aerogenes; experiment: Antibacterial activity against Enterobacter aerogenes ATCC 13048 at 10 mg after 18 hr by agar well diffusion method; details: ATCC 13048, 18 h, read-out: IZ
[13] = tested on: Staphylococcus aureus; experiment: Antibacterial activity against Staphylococcus aureus ATCC 25923 after 18 hr by agar well diffusion method
[14] = tested on: Bacillus cereus; experiment: Antibacterial activity against Bacillus cereus 702 Roma after 18 hr by agar well diffusion method
[15] = tested on: Escherichia coli; experiment: Antibacterial activity against Escherichia coli ATCC 25922 after 18 hr by agar well diffusion method
[16] = tested on: Listeria monocytogenes; experiment: Antibacterial activity against Listeria monocytogenes ATCC 43251 after 18 hr by agar well diffusion method
[17] = tested on: Klebsiella pneumoniae; experiment: Antibacterial activity against Klebsiella pneumoniae ATCC 13883 after 18 hr by agar well diffusion method
[18] = tested on: Enterococcus faecalis; experiment: Antibacterial activity against Enterococcus faecalis ATCC 29212 after 18 hr by agar well diffusion method
[19] = tested on: Mycolicibacterium smegmatis; experiment: Antibacterial activity against Mycobacterium smegmatis ATCC 607 after 18 hr by agar well diffusion method
[20] = tested on: Yersinia pseudotuberculosis; experiment: Antibacterial activity against Yersinia pseudotuberculosis ATCC 911 after 18 hr by agar well diffusion method
[21] = tested on: Klebsiella aerogenes; experiment: Antibacterial activity against Enterobacter aerogenes ATCC 13048 after 18 hr by agar well diffusion method

SMILES	inhibition zone (IZ) [7]	inhibition zone (IZ) [10]	inhibition zone (IZ) [13]	inhibition zone (IZ) [14]	inhibition zone (IZ) [15]	inhibition zone (IZ) [16]	inhibition zone (IZ) [17] [mm]	inhibition zone (IZ) [18]	inhibition zone (IZ) [19]	inhibition zone (IZ) [20]	inhibition zone (IZ) [21] [mm]	also measured
OC(Cn1cncn1)(Cn1cncn1)c1ccc(F)cc1F [FLUCONAZOLE]												zone of inhibition at 5000 µg/disc [1]: 25 mm; zone of inhibition at 5000 µg/disc [2]: 25 mm
CC1(C)S[C@@H]2[C@H](NC(=O)[C@H](N)c3ccccc3)C(=O)N2[C@H]1C(=O)O [AMPICILLIN]	inactive	inactive										zone of inhibition at 10000 µg/disc [3]: > 18 mm; zone of inhibition at 10000 µg/disc [4]: 10 mm; zone of inhibition at 10000 µg/disc [5]: 10 mm; zone of inhibition at 10000 µg/disc [6]: 10 mm; zone of inhibition at 10000 µg/disc [8]: 18 mm; zone of inhibition at 10000 µg/disc [9]: 15 mm; zone of inhibition at 10000 µg/disc [11]: 35 mm; zone of inhibition at 10000 µg/disc [12]: 10 mm
CCOC(=O)Cn1nc(C)n(Cc2ccco2)c1=O	7 mm	9 mm	8 mm	6 mm	inactive	8 mm	10	inactive	15 mm	inactive	10	
CN[C@@H]1[C@H](O[C@H]2[C@H](O[C@H]3[C@H](O)[C@@H](O)[C@H](N=C(N)N)[C@@H](O)[C@@H]3N=C(N)N)O[C@@H](C)[C@]2(O)C=O)O[C@@H](CO)[C@H](O)[C@H]1O [STREPTOMYCIN]									35 mm			
Cc1nn(Cc2nnc(S)n2-c2ccccc2)c(=O)n1Cc1ccco1	inactive	inactive	inactive	inactive	6 mm	inactive	10	inactive	inactive	10 mm	6	
Cc1n[nH]c(=O)n1CC1CCCO1 (centres undefined)	inactive	inactive	20 mm	15 mm	inactive	7 mm	8	10 mm	15 mm	inactive	8	
Cc1nn(S(=O)(=O)c2ccccc2)c(=O)n1Cc1ccco1	inactive	inactive	35 mm	15 mm	20 mm	20 mm	20	25 mm	20 mm	12 mm	15	
O=c1n(S(=O)(=O)c2ccc(Br)cc2)nc(Cc2ccccc2)n1Cc1ccco1	inactive	inactive	10 mm	inactive	10 mm	inactive	15	8 mm	10 mm	8 mm	8	
CCCS(=O)(=O)n1nc(Cc2ccccc2)n(Cc2ccco2)c1=O	inactive	inactive	15 mm	inactive	8 mm	inactive	10	8 mm	15 mm	10 mm	8	
Cc1n[nH]c(=O)n1Cc1ccco1	inactive	inactive	20 mm	8 mm	inactive	6 mm	10	inactive	10 mm	inactive	10	
O=c1n(S(=O)(=O)c2ccc(Cl)cc2)nc(Cc2ccccc2)n1Cc1ccco1	inactive	inactive	15 mm	inactive	6 mm	inactive	10	10 mm	10 mm	8 mm	8	
Cc1nn(S(=O)(=O)c2ccc([N+](=O)[O-])cc2)c(=O)n1Cc1ccco1	inactive	inactive	15 mm	15 mm	15 mm	inactive	20	6 mm	40 mm	12 mm	15	
Cc1nn(Cc2n[nH]c(=O)n2Cc2ccccc2)c(=O)n1Cc1ccco1	inactive	inactive	inactive	6 mm	8 mm	inactive	10	inactive	inactive	10 mm	6	
O=c1[nH]nc(Cc2ccccc2)n1Cc1ccco1	inactive	inactive	20 mm	8 mm	inactive	8 mm	10	10 mm	10 mm	inactive	10	

Source: ChEMBL document CHEMBL3046591, “Design and synthesis of some azole derivatives as potential antimicrobial agents” (2012)
